According to patent publication US20240300940A1, “Phenothiazinyl Compounds and Uses” (Prosetta Biosciences, Inc., priority 2023, published 2024):
Where two headings read alike, the source gives them in different places.

Assays:
NL4-3 Rluc virus = assay: microbe, parasite or virus in culture; assay type: cell-based, HIV; conditions: MT-2 cells, MOI 0.02, 96 hours
E. coli ATCC25922 = assay: MIC assay, serial dilution; conditions: Escherichia coli
VACV-LUC virus = assay: microbe, parasite or virus in culture; assay type: cell-based; conditions: Orthopoxvirus vaccinia, HeLa, 2 h
Hennes-20 cells = assay: Hennes-20 oncology screen; assay type: cell-based; conditions: 72 h, alamar Blue
Description: To screen compounds for oncology activity Hennes-20 cells were plated at low (500 cells/well) versus high (15,000 cells/well) densities and treated with DMSO (vehicle) or dose-titration of compounds. The rationale for this screen is that an intrinsically toxic compound should kill cells regardless of density, including in Hennes-20 cells. However, a compound that selectively triggers the arrest of proliferation will inhibit cell growth when plated at a low density will appear cytotoxic due to inhibition of cell growth when plated at a low density but will appear non-toxic to cells plated at a high density where the cells are approaching confluence and the readout detected by a cell viability assay is already close to the maximum.
To conduct the Hennes-20 screen, two 96 well plates were seeded with Hennes 20 cells in parallel where one was plated at a density of 500 cells/well and the other was plated at a density of 15,000 cells/well. 90 uL of minimum essential media was added to each well and plates were placed in a 37 degrees Celsius incubator for 24 hours. The next day, 10 ul of media containing dilutions of compound in DMSO were added to each plate. Six wells on each plate received 10 ul of media containing only DMSO. Each well was gently mixed 5 times with a 100 ul pipette. Plates were incubated at 37 degrees Celsius for 72 hours and then 10 uL of alamar Blue was added to each well. Wells were mixed 5 times then incubated at 37 degrees Celsius for […]. Plates were then read at 530/590.
The rationale for the screen is as follows: Hennes-20 cells lack endogenous apoptosis. Cells plated at low density will proliferate and approach confluence in 72 hrs. A drug that arrests proliferation may have its proliferation blocking effect masked by the triggering of endogenous apoptosis. However, in the Hennes line, lacking endogenous apoptosis, such an arrest is manifest as a dose-dependent maintenance at low cell density. Since the high-density cells are plated close to confluence, the difference between Alamar Blue cell survival readings after 72 hrs reflects the ability of the drug to block proliferation in the low density-plated cells. In the high density-plated cells any diminution of Alamar Blue readout vs vehicle control is due to intrinsic toxicity, not proliferation arrest, since cells were already at confluence. Thus, a compound that appears toxic (low Alamar Blue readings after 72 hrs) on the low-density plate, but which appears non-toxic (high Alamar Blue readings after 72 hrs) on the high-density plate, must be arresting proliferation, since intrinsic compound toxicity should be observed at both low and high cell densities, not selectively on the low-density plate.

A. baumannii ATCC19606 = assay: MIC assay, serial dilution; conditions: Acinetobacter baumannii
C. albicans ATCC 24433 = assay: Antifungal MIC assay; conditions: Candida albicans, ATCC24433
S. aureus ATCC25923 = assay: MIC assay, serial dilution; conditions: Staphylococcus aureus
[1] = Human immunodeficiency virus 1, NL43, MT2, 96 h
[2] = ATCC25922, read-out: Anti-bacterial Activity (E. coli MIC (uM)), E. coli, Table 5

SMILES	EC50 (NL4-3 Rluc virus; [1]) [µM]	MIC (E. coli ATCC25922; [2]) [µM]	EC50 (VACV-LUC virus) [µM]	EC50 (Hennes-20 cells) [µM]	EC50 (NL4-3 Rluc virus) [µM]	MIC (E. coli ATCC25922; ATCC25922, E. coli ATCC25922) [µg/mL]	MIC (A. baumannii ATCC19606) [µg/mL]	MIC (C. albicans ATCC 24433) [µM]	MIC (S. aureus ATCC25923) [µg/mL]
CCc1cc(N2CCCNCC2)cc2[s+]c3cc(N4CCCNCC4)cc(C)c3nc12 [Compound 16]	4.8								
CCc1cc(N2CCCC2)cc2[s+]c3cc(N4CCC(C)C4)cc(C)c3nc12 (centres unmarked) [Compound 57]	17	12.5							
Cc1cc(C(C)C)cc2[s+]c3cc(N(C)C)cc(C)c3nc12 [Compound 59]			0.56	< 0.5					
CCc1cc(N(C)C)cc2[s+]c3cc(N4CCCNCC4)cc(CC)c3nc12 [Compound 87]					10				
CCc1cc(N2CCNCC2)cc2[s+]c3cc(N4CCNCC4)cc(C)c3nc12 [Compound 92]	4.3			> 12.5					
CCc1cc(N2CCOCC2)cc2[s+]c3cc(N4CCOCC4)cc(C)c3nc12 [Compound 97]	0.23	25							
CCc1cc(N2CCC(N(C)C)CC2)cc2[s+]c3cc(N4CCC(N(C)C)CC4)cc(C)c3nc12 [Compound 98]	38								
CCc1cc(N2CCSCC2)cc2[s+]c3cc(N4CCSCC4)cc(C)c3nc12 [Compound 99]	26	6.3							
CCc1cc(N2CCC(N)CC2)cc2[s+]c3cc(N4CCCCC4)cc(C)c3nc12 [Compound 100]	33	25							
CCN(CC)c1cc(N2CCCC2)cc2[s+]c3cc(N4CCCC4)ccc3nc12 [Compound 117]				12.5		25	12.5	1.6	1.6
c1cc2nc3c(N4CCSC4)cc(N4CCCC4)cc3[s+]c2cc1N1CCCC1 [Compound 118]				12.5		> 100	> 100	3.1	6.25
c1cc2nc3c(N4CCCNCC4)cc(N4CCCC4)cc3[s+]c2cc1N1CCCC1 [Compound 119]				12.5		100	> 100	6.25	25
c1cc2nc3c(N4CCNCC4)cc(N4CCCC4)cc3[s+]c2cc1N1CCCC1 [Compound 120]				12.5		> 100	> 100	100	100
c1cc2nc3c(N4CCOCC4)cc(N4CCCC4)cc3[s+]c2cc1N1CCCC1 [Compound 123]						> 100	100	3.1	6.25
CC1(C)C2CN(c3ccc4nc5c(N6CC7C(C6)C7(C)C)cc(N6CCCC6)cc5[s+]c4c3)CC21 (centres unmarked) [Compound 124]						100	12.5	1.6	6.25
CC1(C)C2CN(c3cc(N4CC5C(C4)C5(C)C)c4nc5ccc(N6CCCC6)cc5[s+]c4c3)CC21 (centres unmarked) [Compound 125]				0.1		> 100	> 100	6.25	12.5
CC(C)(C)c1cc(N2CC3C(C2)C3(C)C)cc2[s+]c3cc(N4CC5C(C4)C5(C)C)cc(N4CC5C(C4)C5(C)C)c3nc12 (centres unmarked) [Compound 126]				0.5		> 100	> 100	12.5	100

SMILES	EC50 (NL4-3 Rluc virus; [1]) [µM]	MIC (E. coli ATCC25922; [2]) [µM]	EC50 (VACV-LUC virus) [µM]	EC50 (Hennes-20 cells) [µM]	EC50 (NL4-3 Rluc virus) [µM]	MIC (E. coli ATCC25922; ATCC25922, E. coli ATCC25922) [µg/mL]	MIC (A. baumannii ATCC19606) [µg/mL]	MIC (C. albicans ATCC 24433) [µM]	MIC (S. aureus ATCC25923) [µg/mL]
CC1(C)C2CN(c3ccc4nc5ccc(N6CC7C(C6C(=O)O)C7(C)C)cc5[s+]c4c3)C(C(=O)O)C21 (centres unmarked) [Compound 127]						> 100	> 100	> 100	> 100
COC(=O)C1C2C(CN1c1ccc3nc4ccc(N5CC6C(C5C(=O)OC)C6(C)C)cc4[s+]c3c1)C2(C)C (centres unmarked) [Compound 129]						> 100	> 100	> 100	12.5
CC(C)(C)c1cc(N2CCCC2)cc2[s+]c3cc(N4CCCC4)cc(N4CCCC4)c3nc12 [Compound 130]						12.5	6.25	6.25	6.25
CC(C)(C)c1cc(N2CCCC2)cc2[s+]c3cc(N4CCCC4)cc(Br)c3nc12 [Compound 132]						100	12.5	12.5	6.25
CC(C)(C)c1cc([N+]2([O-])CCCC2)cc2[s+]c3cc(N4CCCC4)ccc3nc12 [Compound 133]						> 100	100	100	12.5
c1cc2nc3ccc(N4CC5CNCC5C4)cc3[s+]c2cc1N1CC2CNCC2C1 (centres unmarked) [Compound 134]				12.5		> 100	> 100	> 100	> 100
C1=CCN(c2ccc3nc4ccc(N5CC=CC5)cc4[s+]c3c2)C1 [Compound 136]						> 100	> 100	> 100	25
c1cc2nc3ccc(N4CCNC4)cc3[s+]c2cc1N1CCNC1 [Compound 137]						> 100	> 100	> 100	> 100
c1cc2nc3ccc(N4CCCNCC4)cc3[s+]c2cc1N1CCCNCC1 [Compound 139]						> 100	> 100	> 100	> 100
CC(C)(C)OC(=O)N1CCCN(c2ccc3nc4ccc(N5CCCN(C(=O)OC(C)(C)C)CC5)cc4[s+]c3c2)CC1 [Compound 140]						> 100	> 100	> 100	> 100
c1cc2nc3ccc(N4CCCOCC4)cc3[s+]c2cc1N1CCCOCC1 [Compound 141]						> 100	> 100	> 100	100
c1cc2nc3ccc(N4CCSCC4)cc3[s+]c2cc1N1CCSCC1 [Compound 143]								> 100	
c1cc2nc3c(N4CCCC4)cc(N4CCCC4)cc3[s+]c2cc1N1C2CCCC1CC2 [Compound 145]						25	6.25	1.6	1.6
c1cc2nc3ccc(N4C5CCCC4CC5)cc3[s+]c2cc1N1C2CCCC1CC2 [Compound 146]						> 100	25	6.25	3.1
CC1(C)C2CN(c3ccc4nc5ccc(N6C7CCCC6CC7)cc5[s+]c4c3)CC21 (centres unmarked) [Compound 147]						100	25	3.1	1.6
c1ccc2c(c1)Sc1ccccc1N2c1ccc2nc3ccc(N4C5CCCC4CC5)cc3[s+]c2c1 [Compound 148]						> 100	100	100	25
CC1(C)C2CN(c3ccc4nc5ccc(N6CCCC6)cc5[s+]c4c3)CC21 (centres unmarked) [Compound 150]						100	25	1.6	1.6
